Assays:
[1] = acute oral toxicity in rats, observed during 14 days; type: in vivo, Wistar EOPS rats; settings: in vivo, rat, 2000 mg/kg
Description: (§1) The acute toxicity of the p-chlorophenyl ester of clofibric acid was determined using two species of animals (Swiss EOPS mice and Wistar EOPS rats) by oral administration, the product being administered in a gum preparation. The animals were observed during 14 days.

[2] = system: serum and liver lipid levels; experiment: hypolipidemic activity in rats on regimen rich in lipids, second set of experiments (Table II); type: in vivo, male Wistar EOPS rats
Description: (§2) The hypolipidemic activity was determined in rats subjected to a regimen rich in lipids over the course of 2 sets of experiments.
2. Male Wistar EOPS rats weighing in the neighborhood of 140 g receive a regimen rich in lipids during 21 days. Beginning with the eleventh day, the animals receive either a gum preparation containing the product to be tested or a preparation of 6% gum arabic alone, for 6 days out of 7. After the last feeding, and a subsequent 24 hour fast, the animals are sacrificed. A group of animals submitted to a normal regimen is used as a control. The percentage reductions of lipid levels are calculated using the following equation: [formula]

[3] = acute oral toxicity in mice, observed during 14 days; type: in vivo, Swiss EOPS mice; settings: mouse, in vivo, po, 2000 mg/kg
Description: as §1

Swiss EOPS mice = experiment: as above; type: in vivo; settings: general statement
Description: as §1

Wistar EOPS rats = experiment: acute oral toxicity in rats, observed during 14 days; type: in vivo; settings: rat, 2000 mg/kg
Description: as §1

[4] = system: serum and liver lipid levels; experiment: hypolipidemic activity in rats on regimen rich in lipids, first set of experiments (Table I); type: in vivo, conventional male Wistar rats
Description: as §2
1. Conventional male Wistar rats weighing 130-150 g were maintained on a regimen rich in lipids for 21 days. At the same time, beginning with the fifteenth day of the regimen, they received a daily dose of either a gum preparation containing the product to be tested or a preparation of 6% gum arabic alone. After a fast of 24 hours, the animals were sacrificed, 22 days after the start of the regimen.

[5] = subchronic toxicity study, blood levels after one month oral administration (Table III); type: in vivo, male Wistar EOPS rats; set-up: bilirubin: unit not given here
Description: A subchronic toxicity study of the p-chlorophenyl ester of clofibric acid was carried out using the following protocol. The product was administered six days a week during the course of a month, by oral administration in a gum preparation, to male Wistar EOPS rats having an average initial weight of 200 g. After the last feeding, the animals were fasted. A blood sample is taken from the abdominal aorta under anesthesia, then the animals are sacrificed. […] The notation NS or S signifies whether the change induced by the product to be tested was statistically nonsignificant or significant.

[6] = 125 mg/kg/day, regimen rich in lipids
[7] = 200 mg/kg/day, regimen rich in lipids
[8] = 75 mg/kg/day, regimen rich in lipids
[9] = second dose group, dose not given

Structure (SMILES): CC(C)(Oc1ccc(Cl)cc1)C(=O)O [clofibric acid, p-chlorophenoxyisobutyric acid, reference compound]
- mortality at 336 h [1]: 40%
- Wt. of liver / Wt of rat [2, 6]: 6.99 ± 0.75
- liver cholesterol level [2, 6]: 127.0 mg/g of liver
- liver total lipids level [2, 6]: 382.7 mg/g of liver
- liver triglycerides % reduction [2, 6]: 65%
- liver triglycerides level [2, 6]: 20.33 mg/g of liver
- serum cholesterol % reduction [2, 6]: 54%
- serum cholesterol concentration [2, 6]: 2.31 g/L
- serum total lipids % reduction [2, 6]: 46%
- serum total lipids concentration [2, 6]: 4.97 ± 1.41 g/L
- serum triglycerides concentration [2, 6]: 0.23 ± 0.04 g/L

Structure (SMILES): CC(C)(Oc1ccc(Cl)cc1)C(=O)Oc1ccc(Cl)cc1 [p-chlorophenyl ester of clofibric acid, p-chlorophenyl 2-(p-chlorophenoxy)-2-methylpropionate]
- mortality at 336 h [3]: 10%
- toxicity (Swiss EOPS mice): very low toxicity
- mortality (Wistar EOPS rats): did not result in any mortality
- significance of reductions in blood and liver levels ([4]; 200 mg/kg/day, Table I): significant
- liver total lipids % reduction [4, 7]: 56%
- liver total lipids level [4, 7]: 60.82 ± 26.98 mg/g of liver
- serum cholesterol % reduction [4, 7]: 69%
- serum cholesterol concentration [4, 7]: 1.33 ± 0.33 g/L
- serum total lipids % reduction [4, 7]: 81%
- serum total lipids concentration [4, 7]: 3.87 ± 0.65 g/L
- hypolipidemic activity compared with clofibric acid and nicotinic acid ([4]; general statement, total serum lipid and serum cholesterol levels): significantly superior to that of both clofibric acid and nicotinic acid
- Wt. of liver / Wt of rat [2, 8]: 6.08 ± 0.31
- liver cholesterol level [2, 8]: 123.0 mg/g of liver
- liver total lipids level [2, 8]: 323.9 mg/g of liver
- liver triglycerides % reduction [2, 8]: 48%
- liver triglycerides level [2, 8]: 23.37 mg/g of liver
- serum cholesterol % reduction [2, 8]: 32%
- serum cholesterol concentration [2, 8]: 3.06 g/L
- serum total lipids % reduction [2, 8]: 34%
- serum total lipids concentration [2, 8]: 5.56 ± 2.83 g/L
- serum triglycerides concentration [2, 8]: 0.39 ± 0.06 g/L
- Wt. of liver / Wt of rat [2, 6]: 6.36 ± 0.31
- liver cholesterol level [2, 6]: 136.5 mg/g of liver
- liver total lipids level [2, 6]: 361.9 mg/g of liver
- liver triglycerides % reduction [2, 6]: 62%
- liver triglycerides level [2, 6]: 20.84 mg/g of liver
- serum cholesterol % reduction [2, 6]: 69%
- serum cholesterol concentration [2, 6]: 1.79 g/L
- serum total lipids % reduction [2, 6]: 74%
- serum total lipids concentration [2, 6]: 3.55 ± 0.77 g/L
- serum triglycerides concentration [2, 6]: 0.35 ± 0.06 g/L
- Wt. of liver / Wt of rat [2, 7]: 6.70 ± 0.50
- liver cholesterol level [2, 7]: 135.2 mg/g of liver
- liver total lipids level [2, 7]: 382.0 mg/g of liver
- liver triglycerides % reduction [2, 7]: 89%
- liver triglycerides level [2, 7]: 16.20 mg/g of liver
- serum cholesterol % reduction [2, 7]: 67%
- serum cholesterol concentration [2, 7]: 1.84 g/L
- serum total lipids % reduction [2, 7]: 69%
- serum total lipids concentration [2, 7]: 3.81 ± 0.97 g/L
- serum triglycerides concentration [2, 7]: 0.22 ± 0.06 g/L
- reduction of serum lipid and cholesterol levels compared with the acid ([2]; at equal dosage levels, vs clofibric acid): reduces serum lipid and cholesterol levels to a greater degree than the acid
- increase in liver weight compared with the acid ([2]; at equivalent dosage levels, vs clofibric acid): smaller than when the acid is used, and this difference is statistically significant
- weight of the animals' livers ([2]; regimen rich in lipids): increases
- alkaline phosphatase ([5]; 100 mg/kg/day): 25.0 ± 4.9 mU/ml
- bilirubin ([5]; 100 mg/kg/day): 3.68 ± 0.73
- cholesterol ([5]; 100 mg/kg/day): 0.47 ± 0.04 g/L
- glycemia ([5]; 100 mg/kg/day): 1.58 ± 0.15 g/L
- total lipids ([5]; 100 mg/kg/day): 2.92 ± 0.54 g/L
- triglycerides ([5]; 100 mg/kg/day): 0.83 ± 0.27 g/L
- urea ([5]; 100 mg/kg/day): 0.42 ± 0.07 g/L
- alkaline phosphatase ([5]; 500 mg/kg/day): 38.4 ± 9.9 mU/ml
- bilirubin ([5]; 500 mg/kg/day): 5.04 ± 1.09
- cholesterol ([5]; 500 mg/kg/day): 0.32 ± 0.06 g/L
- glycemia ([5]; 500 mg/kg/day): 1.41 ± 0.26 g/L
- total lipids ([5]; 500 mg/kg/day): 2.77 ± 0.42 g/L
- triglycerides ([5]; 500 mg/kg/day): 1.09 ± 0.33 g/L
- urea ([5]; 500 mg/kg/day): 0.40 ± 0.05 g/L
- alkaline phosphatase [5, 9]: 33.5± 7.8 mU/ml
- bilirubin [5, 9]: 4.82 ± 1.85
- cholesterol [5, 9]: 0.37 ± 0.07 g/L
- glycemia [5, 9]: 1.57 ± 0.15 g/L
- total lipids [5, 9]: 2.54 ± 0.35 g/L
- triglycerides [5, 9]: 0.74 ± 0.1 g/L
- urea [5, 9]: 0.34 ± 0.07 g/L

Reference: patent US4179519A, “Method and composition for reducing serum lipid levels using p-chlorophenyl p-chlorophenoxyisobutyrate” (priority 1978, dated 1979)
